Assay results: patent US20250034264A1, “REGULATING T CELL IMMUNE RESPONSE THROUGH IGF-I RECEPTOR (IGF-1R)” (The Regents of the University of Michigan, priority 2021, published 2025)

How the values were obtained:
[1] = system: fibrocytes; assay: mRNA stability with DRB; assay type: cell-based, human; settings: 50 μg/mL, up to 12 hrs
Protocol: FIGS. 5A-5C show the effects of teprotumumab on basal and bTSH-induced gene promoter activities in GD-OF compared to fibrocytes, gene transcription and mRNA stabilities of MHC II, CD80, CD86, PD-L1 in fibrocytes. Confluent GD-OF and fibrocyte monolayers were treated with human Isotype IgG (5 μg/ml) or teprotumumab (50 μg/mL) for 3 d and transfected with a target gene promoter fragment (MHC-2, CD80, CD86, PD-L1, or negative control clone PG04). Following a 3-4 d incubation, they were treated without or with bTSH (5 mU/mL) for 2 h. Monolayers were rinsed, processed, and analyzed using the Secrete-Pair Dual Luminescence Assay Kit for promoter activity according to manufacturer's instructions (FIG. 5A). Values were normalized to internal controls. Fibrocyte monolayers were cross-linked with 16% formaldehyde isolated chromatin fragment and immunoprecipitated with anti-human HLA-DPB1, anti-CD80, anti-CD86, or anti-PD-L1 using the Pierce™ Agarose Chip Kit. Isolated DNA was subjected to RT-PCR using EpiTect ChIP qPCR Primer Assay (Qiagen) for each target (FIG. 5B). Each datum point represents values from three independent determinations from one of three experiments performed. *, p<0.05; ** p<0.01; and ***p<0.001. Fibrocyte cultures were pretreated with bTSH for 6 h. […] RNA was extracted, reverse transcribed, and subjected to real-time quantitative PCR for each target (FIG. 5C). […]

[2] = system: fibrocytes; assay: Gene promoter activity assay (Secrete-Pair Dual Luminescence); assay type: cell-based, human; settings: 50 μg/mL
Protocol: Cell transfections, gene promoter assays and siRNA knockdown studies The nucleofection method was utilized to transfect fibrocytes with the U-023 program of the Nucleofector II instrument (Lonza, Walkersville, MD) and the Amaxa human CD34 cell nucleofection kit (cat. no. VPA-1003; Lonza). To assess human gene promoter activities, appropriate fragments described in earlier reports were selected and cloned for MHC II, CD80, CD86, and PD-L1. Confluent fibrocyte monolayers were treated with human Isotype IgG or teprotumumab (50 μg/mL) for 3 d. Cells were transfected with the following target gene promoter fragment sequences supplied by GeneCopoeia (Rockville, MD): MHC-2 (cat. #HPRM49526), −100 to +1429 nt; CD80 (cat. #HPRM45966), −300 to +1350 nt; CD86 (cat. #HPRM46979), −231 to +1272 nt; PD-L1 (cat. #HPRM40139), −237 to +1282 nt; and negative control clone PG04 (cat. #NEG-PG04). After 3-4 d, cells were incubated without or with bTSH (5 mU/mL) for 2 h. Monolayers were harvested and promoter activities measured using the Secrete-Pair Dual Luminescence Assay Kit (cat. #LF033, GeneCopoeia Rockville, MD) according to manufacturer's instructions in an FB12 tube luminometer (Zylux, Huntsville, AL). Values were normalized to internal controls and each experiment was performed at least three times. […]

With teprotumumab the “stabilities of mRNA encoding MHC II, CD80, CD86, PD-L1” value [1] was “accelerated their decline”, the “activities of MHC II, CD80, CD86, PD-L1 gene promoter fragments” value ([2]; 3 days) was “downregulated” and the “bTSH induction of each gene promoter fragment” value ([2]; bTSH 2 h) was “attenuated”.
